In general, IC50 refers to the point on the concentration scale where inhibition reaches its midpoint. As usually defined, the Ki is the equilibrium dissociation constant of an inhibitor or competing ligand from its target.

Structures are written as SMILES.

System in the first test: not listed separately
In words: DRUGMATRIX: Glutamate, NMDA, Phencyclidine radioligand binding (ligand: [3H] TCP). Type of test: cell membranes, Rattus norvegicus, Wistar, Cerebral cortex, Membrane. Particulars: Not Active = under 50% inhibition at 10 µM.
Take `Oc1c(Cl)cc(Cl)cc1Sc1cc(Cl)cc(Cl)c1O` [BITHIONOL]: the IC50 result was “Not Active” and the Ki entry is reported as “Not Active”.
As for `COc1ccc(CN(CCN(C)C)c2ccccn2)cc1` [PYRILAMINE], the IC50 entry was “Not Active” and the Ki entry is “Not Active”.
With `O=C1OC2(c3ccc(O)cc3Oc3cc(O)ccc32)c2ccccc21` [FLUORESCEIN], the IC50 entry is given as “Not Active” and the Ki entry is on record as “Not Active”.

For another test, the target named is Mitogen-activated protein kinase 1 (Homo sapiens, UniProt P28482). In words: DRUGMATRIX: Protein Serine/Threonine Kinase, ERK2 enzyme inhibition (substrate: Myelin Basic Protein). Further details: species or system Escherichia coli. The conditions noted are these: Not Active = under 50% inhibition at 10 µM.
Chain of Mitogen-activated protein kinase 1 (P28482 whole entry): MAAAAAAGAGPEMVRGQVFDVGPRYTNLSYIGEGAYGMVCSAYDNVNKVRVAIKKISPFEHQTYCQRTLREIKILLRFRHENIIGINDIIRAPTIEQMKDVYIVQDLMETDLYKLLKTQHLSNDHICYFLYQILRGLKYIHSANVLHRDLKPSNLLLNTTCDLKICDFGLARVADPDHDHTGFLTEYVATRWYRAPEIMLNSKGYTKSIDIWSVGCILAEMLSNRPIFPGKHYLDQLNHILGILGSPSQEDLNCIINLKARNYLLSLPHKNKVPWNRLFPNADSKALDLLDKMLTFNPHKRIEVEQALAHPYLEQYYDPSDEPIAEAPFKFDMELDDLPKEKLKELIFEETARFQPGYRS
For `COc1ccc(CN(CCN(C)C)c2ccccn2)cc1` [PYRILAMINE], the IC50 result is “Not Active”.
As to `O=C1OC2(c3ccc(O)cc3Oc3cc(O)ccc32)c2ccccc21` [FLUORESCEIN], the IC50 entry was “Not Active”.

The test is the same for the next values; noted with them: Not Active = under 50% inhibition at 10 µM; read-out: IC50.
Consider `Oc1c(Cl)cc(Cl)cc1Sc1cc(Cl)cc(Cl)c1O` [BITHIONOL], for which the IC50 is 385 nM.

Another test concerns the target T1, Adenosine receptor A1 (Homo sapiens, UniProt P30542).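 Further: radioligand binding assay at the adenosine A1 receptor, with DPCPX serving as the labelled ligand; in other assays of this panel Not Active means under 50% inhibition at 10 µM.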
T1 sequence (P30542 whole entry): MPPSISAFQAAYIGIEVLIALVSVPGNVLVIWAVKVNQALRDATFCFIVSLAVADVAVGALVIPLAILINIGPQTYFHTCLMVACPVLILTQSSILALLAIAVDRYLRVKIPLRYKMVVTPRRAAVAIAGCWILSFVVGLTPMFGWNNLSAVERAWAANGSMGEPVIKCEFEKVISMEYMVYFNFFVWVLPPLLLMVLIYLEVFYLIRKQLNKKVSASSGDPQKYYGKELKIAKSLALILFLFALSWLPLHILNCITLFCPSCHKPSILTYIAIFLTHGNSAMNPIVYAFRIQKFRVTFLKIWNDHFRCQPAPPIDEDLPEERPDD
Assay: not given
Type of test: cell membranes, CHO, Membrane. The conditions noted are these: cho.
Take `Oc1c(Cl)cc(Cl)cc1Sc1cc(Cl)cc(Cl)c1O` [BITHIONOL]: the IC50 result is reported as “Not Active”.
In the case of `COc1ccc(CN(CCN(C)C)c2ccccn2)cc1` [PYRILAMINE], the IC50 result is listed as “Not Active”.
Consider `O=C1OC2(c3ccc(O)cc3Oc3cc(O)ccc32)c2ccccc21` [FLUORESCEIN], for which the IC50 result was “Not Active”.

The target of the next test is D(3) dopamine receptor (Homo sapiens, UniProt P35462). In words: DRUGMATRIX: Dopamine D3 radioligand binding (ligand: [3H] Spiperone). Particulars: cho. The class given is cell membranes, CHO, Membrane.
Chain of D(3) dopamine receptor (P35462 whole entry): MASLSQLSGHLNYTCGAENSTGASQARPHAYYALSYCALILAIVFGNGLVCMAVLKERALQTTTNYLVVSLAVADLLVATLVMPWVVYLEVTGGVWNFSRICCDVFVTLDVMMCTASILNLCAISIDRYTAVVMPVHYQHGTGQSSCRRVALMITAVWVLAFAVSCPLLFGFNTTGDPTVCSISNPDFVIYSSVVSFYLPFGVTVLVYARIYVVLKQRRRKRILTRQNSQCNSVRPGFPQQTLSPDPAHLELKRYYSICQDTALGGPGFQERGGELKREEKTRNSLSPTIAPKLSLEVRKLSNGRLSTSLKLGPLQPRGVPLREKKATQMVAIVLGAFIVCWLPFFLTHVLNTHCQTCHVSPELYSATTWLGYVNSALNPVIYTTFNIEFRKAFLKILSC
Regarding `COc1ccc(CN(CCN(C)C)c2ccccn2)cc1` [PYRILAMINE], the IC50 result is on record as “Not Active”.
Still for that read-out and setting: under `O=C1OC2(c3ccc(O)cc3Oc3cc(O)ccc32)c2ccccc21` [FLUORESCEIN] stands “Not Active”.

Staying with this test, now noted: read-out: IC50.
Take `Oc1c(Cl)cc(Cl)cc1Sc1cc(Cl)cc(Cl)c1O` [BITHIONOL]: the IC50 worked out at 4220 nM.

Still in this test, the particulars now being: read-out: Ki.
With `Oc1c(Cl)cc(Cl)cc1Sc1cc(Cl)cc(Cl)c1O` [BITHIONOL], the Ki came to 1430 nM.

For another test, the target named is T2, Interstitial collagenase (Homo sapiens, UniProt P03956).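 Further: MMP-1 enzyme inhibition assay using a peptide substrate; in other assays of this panel Not Active means under 50% inhibition at 10 µM.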
T2 sequence (P03956 whole entry): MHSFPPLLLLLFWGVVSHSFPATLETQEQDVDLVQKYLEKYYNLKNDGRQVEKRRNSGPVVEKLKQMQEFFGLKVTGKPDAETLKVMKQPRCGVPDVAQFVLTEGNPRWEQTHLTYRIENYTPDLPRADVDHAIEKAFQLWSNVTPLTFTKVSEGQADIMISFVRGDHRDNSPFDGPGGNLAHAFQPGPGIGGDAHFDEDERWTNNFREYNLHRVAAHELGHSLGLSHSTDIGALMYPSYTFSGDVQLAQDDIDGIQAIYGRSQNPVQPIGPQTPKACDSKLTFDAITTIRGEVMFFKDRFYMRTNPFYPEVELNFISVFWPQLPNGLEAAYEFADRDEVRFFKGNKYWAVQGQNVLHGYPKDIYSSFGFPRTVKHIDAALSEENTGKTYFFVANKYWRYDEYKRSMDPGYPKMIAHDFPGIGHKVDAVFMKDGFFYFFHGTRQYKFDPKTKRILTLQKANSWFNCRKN
Assay: not given
The class given is tissue-based, Rheumatoid synovial fibroblasts.
Conditions: not given
Regarding `Oc1c(Cl)cc(Cl)cc1Sc1cc(Cl)cc(Cl)c1O` [BITHIONOL], the IC50 result is “Not Active”.
Still for that read-out and setting: as for `COc1ccc(CN(CCN(C)C)c2ccccn2)cc1` [PYRILAMINE], the entry is “Not Active”; as for `O=C1OC2(c3ccc(O)cc3Oc3cc(O)ccc32)c2ccccc21` [FLUORESCEIN], “Not Active”.

The target of a further test is Melanocortin receptor 3 (Homo sapiens, UniProt P41968). Further: in other assays of this panel Not Active means under 50% inhibition at 10 µM.
Chain of Melanocortin receptor 3 (P41968 whole entry): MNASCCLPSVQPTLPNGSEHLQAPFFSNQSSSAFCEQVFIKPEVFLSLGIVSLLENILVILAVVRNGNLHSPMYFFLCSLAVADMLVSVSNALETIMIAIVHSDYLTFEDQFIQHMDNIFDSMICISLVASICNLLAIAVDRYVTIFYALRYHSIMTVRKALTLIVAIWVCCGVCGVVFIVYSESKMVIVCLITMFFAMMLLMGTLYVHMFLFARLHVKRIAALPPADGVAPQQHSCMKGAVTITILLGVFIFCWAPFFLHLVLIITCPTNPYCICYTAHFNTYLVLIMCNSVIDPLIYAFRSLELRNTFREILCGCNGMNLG
Assay: not given
Particulars: hek293. The class given is cell membranes, Membrane.
With `Oc1c(Cl)cc(Cl)cc1Sc1cc(Cl)cc(Cl)c1O` [BITHIONOL], the IC50 entry is recorded as “Not Active”.
As for `COc1ccc(CN(CCN(C)C)c2ccccn2)cc1` [PYRILAMINE], the IC50 entry is recorded as “Not Active”.
Take `O=C1OC2(c3ccc(O)cc3Oc3cc(O)ccc32)c2ccccc21` [FLUORESCEIN]: the IC50 entry is “Not Active”.

In a further test the target is Prostaglandin G/H synthase 1 (Homo sapiens, UniProt P23219). In words: biochemical. The conditions noted are these: platelet. The class given is tissue-based, Platelet.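 Further: inhibition of COX-1 enzyme activity, with arachidonic acid supplied as substrate; in other assays of this panel Not Active means under 50% inhibition at 10 µM.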
Chain of Prostaglandin G/H synthase 1 (P23219 whole entry): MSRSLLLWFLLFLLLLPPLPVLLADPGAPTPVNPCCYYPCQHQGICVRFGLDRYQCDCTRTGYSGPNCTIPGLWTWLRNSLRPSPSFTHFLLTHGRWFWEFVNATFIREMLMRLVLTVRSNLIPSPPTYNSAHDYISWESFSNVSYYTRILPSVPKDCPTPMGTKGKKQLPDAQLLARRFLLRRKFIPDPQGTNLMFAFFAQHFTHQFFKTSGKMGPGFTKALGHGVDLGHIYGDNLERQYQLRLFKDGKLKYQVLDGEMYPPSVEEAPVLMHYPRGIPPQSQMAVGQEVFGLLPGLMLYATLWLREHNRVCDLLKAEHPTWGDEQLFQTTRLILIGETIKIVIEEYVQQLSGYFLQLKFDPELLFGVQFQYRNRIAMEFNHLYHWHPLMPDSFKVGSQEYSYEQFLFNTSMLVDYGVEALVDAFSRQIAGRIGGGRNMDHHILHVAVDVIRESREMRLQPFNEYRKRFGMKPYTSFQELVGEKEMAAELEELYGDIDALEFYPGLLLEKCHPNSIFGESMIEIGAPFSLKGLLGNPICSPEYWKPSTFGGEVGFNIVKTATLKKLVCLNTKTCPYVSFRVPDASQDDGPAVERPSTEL
As for `Oc1c(Cl)cc(Cl)cc1Sc1cc(Cl)cc(Cl)c1O` [BITHIONOL], the IC50 entry is listed as “Not Active”.
On the same count and under the same terms, as for `COc1ccc(CN(CCN(C)C)c2ccccn2)cc1` [PYRILAMINE], the entry is “Not Active”; as for `O=C1OC2(c3ccc(O)cc3Oc3cc(O)ccc32)c2ccccc21` [FLUORESCEIN], “Not Active”.

The target of the next test is T3, 3-hydroxy-3-methylglutaryl-coenzyme A reductase (Homo sapiens, UniProt P04035).
T3 sequence (P04035 whole entry): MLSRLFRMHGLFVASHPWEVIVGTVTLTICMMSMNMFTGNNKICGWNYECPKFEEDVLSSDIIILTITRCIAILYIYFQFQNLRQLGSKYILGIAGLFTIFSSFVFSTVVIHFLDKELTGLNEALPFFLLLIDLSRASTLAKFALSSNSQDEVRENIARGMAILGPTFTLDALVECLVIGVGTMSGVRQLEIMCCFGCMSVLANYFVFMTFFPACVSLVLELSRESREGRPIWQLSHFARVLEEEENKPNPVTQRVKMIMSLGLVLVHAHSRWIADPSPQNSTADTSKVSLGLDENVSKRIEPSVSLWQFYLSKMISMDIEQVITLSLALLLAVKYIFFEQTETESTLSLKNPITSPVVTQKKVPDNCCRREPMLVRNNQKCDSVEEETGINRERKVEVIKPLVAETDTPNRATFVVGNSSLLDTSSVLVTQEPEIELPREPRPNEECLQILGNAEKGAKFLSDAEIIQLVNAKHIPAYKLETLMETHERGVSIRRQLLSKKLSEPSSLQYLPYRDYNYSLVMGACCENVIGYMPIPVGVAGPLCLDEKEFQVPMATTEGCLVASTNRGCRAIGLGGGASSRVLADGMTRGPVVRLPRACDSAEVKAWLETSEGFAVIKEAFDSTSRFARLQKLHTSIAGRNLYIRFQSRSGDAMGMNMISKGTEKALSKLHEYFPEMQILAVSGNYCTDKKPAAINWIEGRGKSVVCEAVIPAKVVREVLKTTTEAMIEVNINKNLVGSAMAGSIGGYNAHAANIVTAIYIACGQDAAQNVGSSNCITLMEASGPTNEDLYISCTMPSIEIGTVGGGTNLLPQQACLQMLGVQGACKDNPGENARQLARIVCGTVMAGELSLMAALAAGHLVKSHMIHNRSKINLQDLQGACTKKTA
Assay: not given
Further details: species or system Escherichia coli.
Conditions: not given
As to `Oc1c(Cl)cc(Cl)cc1Sc1cc(Cl)cc(Cl)c1O` [BITHIONOL], the IC50 result is “Not Active”.
The same measure, in the same setting: under `COc1ccc(CN(CCN(C)C)c2ccccn2)cc1` [PYRILAMINE] stands “Not Active”.
As for `O=C1OC2(c3ccc(O)cc3Oc3cc(O)ccc32)c2ccccc21` [FLUORESCEIN], the IC50 result is reported as “Not Active”.

The target in a further test is Platelet-activating factor receptor (Homo sapiens, UniProt P25105). As to the kind of experiment: biochemical. Type of test: tissue-based. Particulars: platelet. Further: in other assays of this panel Not Active means under 50% inhibition at 10 µM.
Chain of Platelet-activating factor receptor (P25105 whole entry): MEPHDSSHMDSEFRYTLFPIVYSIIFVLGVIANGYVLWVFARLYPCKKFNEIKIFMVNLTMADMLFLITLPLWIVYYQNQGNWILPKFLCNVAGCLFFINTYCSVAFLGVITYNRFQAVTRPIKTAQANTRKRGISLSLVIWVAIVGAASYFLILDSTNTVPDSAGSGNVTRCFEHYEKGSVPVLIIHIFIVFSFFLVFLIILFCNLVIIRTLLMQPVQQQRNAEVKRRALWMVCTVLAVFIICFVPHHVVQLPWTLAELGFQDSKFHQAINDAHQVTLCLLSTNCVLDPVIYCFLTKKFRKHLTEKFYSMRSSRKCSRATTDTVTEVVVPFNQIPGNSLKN
For the compound `Oc1c(Cl)cc(Cl)cc1Sc1cc(Cl)cc(Cl)c1O` [BITHIONOL], the IC50 result is listed as “Not Active”.
Consider `COc1ccc(CN(CCN(C)C)c2ccccn2)cc1` [PYRILAMINE], for which the IC50 entry was “Not Active”.
Same read-out and setting: under `O=C1OC2(c3ccc(O)cc3Oc3cc(O)ccc32)c2ccccc21` [FLUORESCEIN] stands “Not Active”.

System in the next test: not listed separately
In words: DRUGMATRIX: Phosphodiesterase PDE4 enzyme inhibition (substrate: [3H]cAMP + cAMP). Particulars: u-937; Not Active = under 50% inhibition at 10 µM.
For `Oc1c(Cl)cc(Cl)cc1Sc1cc(Cl)cc(Cl)c1O` [BITHIONOL], the IC50 entry is reported as “Not Active” and the Ki entry is “Not Active”.
On to `COc1ccc(CN(CCN(C)C)c2ccccn2)cc1` [PYRILAMINE], for which the IC50 result is recorded as “Not Active” and the inhibition constant Ki result is recorded as “Not Active”.
For `O=C1OC2(c3ccc(O)cc3Oc3cc(O)ccc32)c2ccccc21` [FLUORESCEIN], the half-inhibitory concentration (IC50) result is reported as “Not Active” and the Ki result is “Not Active”.

The next test concerns the target T4, Alpha-1D adrenergic receptor (Homo sapiens, UniProt P25100). Further: in other assays of this panel Not Active means under 50% inhibition at 10 µM.
T4 sequence (P25100 whole entry): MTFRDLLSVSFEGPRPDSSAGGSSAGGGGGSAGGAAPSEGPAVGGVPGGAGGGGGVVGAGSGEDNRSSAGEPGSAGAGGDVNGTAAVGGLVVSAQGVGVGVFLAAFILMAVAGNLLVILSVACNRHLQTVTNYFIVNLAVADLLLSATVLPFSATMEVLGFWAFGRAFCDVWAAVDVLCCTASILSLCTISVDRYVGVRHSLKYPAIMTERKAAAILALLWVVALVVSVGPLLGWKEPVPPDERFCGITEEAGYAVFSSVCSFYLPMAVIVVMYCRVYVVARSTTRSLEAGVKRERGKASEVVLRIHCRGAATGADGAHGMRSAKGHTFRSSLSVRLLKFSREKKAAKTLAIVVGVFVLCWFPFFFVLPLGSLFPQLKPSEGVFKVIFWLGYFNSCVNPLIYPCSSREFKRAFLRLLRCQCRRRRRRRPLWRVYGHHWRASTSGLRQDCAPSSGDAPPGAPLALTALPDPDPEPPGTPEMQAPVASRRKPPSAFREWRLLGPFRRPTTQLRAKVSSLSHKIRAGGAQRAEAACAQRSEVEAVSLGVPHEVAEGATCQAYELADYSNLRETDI
Assay: not given
Type of test: cell membranes, HEK293, Membrane. The conditions noted are these: hek293.
For `Oc1c(Cl)cc(Cl)cc1Sc1cc(Cl)cc(Cl)c1O` [BITHIONOL], the half-inhibitory concentration (IC50) result was “Not Active”.
The same measure, in the same setting: under `COc1ccc(CN(CCN(C)C)c2ccccn2)cc1` [PYRILAMINE] stands “Not Active”.
Still for that read-out and setting: as for `O=C1OC2(c3ccc(O)cc3Oc3cc(O)ccc32)c2ccccc21` [FLUORESCEIN], the entry is “Not Active”.

System in another test: not listed separately
In words: DRUGMATRIX: Calcium Channel Type L, Phenylalkylamine radioligand binding (ligand: [3H] (-)-Desmethoxyverapamil (D-888)). Type of test: cell membranes, Rattus norvegicus, Wistar, Brain, Membrane. The conditions noted are these: Not Active = under 50% inhibition at 10 µM.
On to `Oc1c(Cl)cc(Cl)cc1Sc1cc(Cl)cc(Cl)c1O` [BITHIONOL], for which the IC50 result is recorded as “Not Active” and the inhibitory constant (Ki) entry is “Not Active”.
Regarding `COc1ccc(CN(CCN(C)C)c2ccccn2)cc1` [PYRILAMINE], the IC50 entry was “Not Active” and the Ki entry was “Not Active”.
With `O=C1OC2(c3ccc(O)cc3Oc3cc(O)ccc32)c2ccccc21` [FLUORESCEIN], the IC50 entry is given as “Not Active” and the Ki entry is listed as “Not Active”.

System in another test: not listed separately
As to the kind of experiment: DRUGMATRIX: Glutamate, NMDA, Agonism radioligand binding (ligand: [3H] CGP-39653). The class given is cell membranes, Rattus norvegicus, Wistar, Cerebral cortex, Membrane. The conditions noted are these: Not Active = under 50% inhibition at 10 µM.
As for `Oc1c(Cl)cc(Cl)cc1Sc1cc(Cl)cc(Cl)c1O` [BITHIONOL], the IC50 result was “Not Active” and the Ki entry is given as “Not Active”.
With `COc1ccc(CN(CCN(C)C)c2ccccn2)cc1` [PYRILAMINE], the IC50 result was “Not Active” and the Ki entry is given as “Not Active”.
As for `O=C1OC2(c3ccc(O)cc3Oc3cc(O)ccc32)c2ccccc21` [FLUORESCEIN], the IC50 entry was “Not Active” and the Ki entry is on record as “Not Active”.

Source of the values: ChEMBL document CHEMBL1909046, “DrugMatrix in vitro pharmacology data”.
